Key:
RGS2-FBXO44 interaction [1] = biological target: T1, RGS2-FBXO44 interaction (Homo sapiens, UniProt P41220); assay: RGS2-FBXO44 NanoBit assay (HEK-293T RGS2-SmBiT/LgBiT-FBXO44 stable clone #6); type: cell-based
T1 construct: expressed in transfected cells
T1 sequence (P41220 1-211): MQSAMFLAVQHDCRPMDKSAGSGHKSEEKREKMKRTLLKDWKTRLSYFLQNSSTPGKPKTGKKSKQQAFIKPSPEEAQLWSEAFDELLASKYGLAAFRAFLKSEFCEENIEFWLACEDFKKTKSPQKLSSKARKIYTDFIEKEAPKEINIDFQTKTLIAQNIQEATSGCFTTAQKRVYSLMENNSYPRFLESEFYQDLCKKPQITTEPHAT
Experimental: Nano-Glo Live Cell Substrate (LCS) was diluted 1:50 in HBSS to form a 2× stock, and then, 15 μL was added to each well. Plates were shaken on an orbital shaker at 500 rpm for 5 minutes protected from light and then spun down at 1000 rpm for 30 seconds. Plates were incubated at room temperature for 20 minutes, and then, luminescence was detected on a Synergy Neo2 multimode plate reader.
HEK-293T-RGS2-FBXO44 NanoBit cells were treated for 16–18 hours with compound at 100 μM. This relatively high concentration was chosen because of the challenging nature of our assay (intracellular PPI inhibition). Parental HEK-293T cells were used as a negative control. […] Based on these criteria, 97 compounds were identified as hits from our primary screen (6.1% initial hit rate). To confirm hits, the same assay was repeated in triplicate, which delivered 34 compounds that reached the threshold for inhibition in at least 2 replicates with <25% cell toxicity (Fig. 2C; Supplemental Table 1), thus rendering a final hit rate of 2.1%.
Fresh powders of 20 compounds were purchased and reassayed for their ability to inhibit the RGS2-FBXO44 NanoBit signal, using the same assay paradigm as in the primary screen (Fig. 3; Table 1). […] Nevertheless, all compounds were confirmed to inhibit the RGS2-FBXO44 NanoBit signal at this high concentration.
We next assessed the concentration-dependent effect of our 20 hits. Compounds were assayed at concentrations ranging from 500 to 0.01 μM. NanoBit luminescence (relative luminescence units) was normalized to viability (RFU) and presented as a percentage of untreated cells.

RGS2-FBXO44 interaction [2] = biological target: T1, RGS2-FBXO44 interaction; assay: Coimmunoprecipitation of RGS2-HA and FLAG-FBXO44; type: cell-based; conditions: 100 μM; anti-HA IP, FLAG-FBXO44 normalized to input, vs DMSO
Experimental: The cells were harvested in RIPA buffer containing protease inhibitors. The cells were then lysed by incubating on ice with occasional vortexing for 30 minutes. The cell lysates were centrifuged at 9600 × g for 10 minutes, and the supernatants were precleared by incubating with 40 μL prewashed protein A agarose beads (Roche) for 1 hour with slow rotation at 4 °C. The samples were then centrifuged at 10,000 rpm for 1 minute, and the supernatant was used to determine total protein concentration with the Pierce BCA Protein Assay Kit (Thermo Scientific). In total, 500 μg of total protein was used for each reaction. The samples were incubated with 100 μM compound 10 for 30 minutes with rotation at 4 °C. An equal amount of DMSO was used as a vehicle. Additionally, 20 μL was removed from each sample (input); 3 μL of rabbit anti-HA antibody (H6908; Sigma Aldrich) and 40μL of protein A agarose beads (Roche) were added to each sample prior to incubation on rotator at 4 °C overnight. The samples were centrifuged at 9600 × g for 5 minutes at 4 °C, and the supernatant was removed. The samples were washed once with 1 mL RIPA buffer and then 3× with 1 mL PBS. Bound proteins were eluted by heating the samples at 95 °C in 30 μL of SDS sample buffer for 10 minutes. The samples were centrifuged at 10,000 rpm for 5 minutes at 4 °C, and the supernatants were subjected to SDS-PAGE and western blot analysis. […]

RGS2 protein levels = assay: PathHunter ProLabel assay of RGS2 protein levels in HEK-293T-RGS2-PL cells; type: cell-based, Human; conditions: for RGS2 protein levels (PathHunter ProLabel): 100 μM compound overnight (16–18 hours)
Experimental: The PathHunter ProLabel assay was run as described previously ([Sjögren et al, 2012]; [Raveh et al, 2014]; [Sjögren et al, 2015]). Briefly, HEK-293T-RGS2-PL cells were plated at 10,000 cells per well in a white, tissue culture-treated 384-well plate (Perkin Elmer) in DMEM without phenol red (#21063; Gibco) and 0.1% BSA. The cells were allowed to attach for 4 hours, followed by treatment with DMSO, 10 μM MG-132, or 100 μM of compounds. Prior to the detection of RGS2 protein levels by the ProLabel assay, a fluorescent viability assay was performed in the same well, as described above. PathHunter ProLabel reagents (DiscoveRx) were prepared according to the manufacturer’s directions and added to the plate, followed by incubation at room temperature for 1 hour. Luminescence corresponding to RGS2-PL protein levels was detected using a Synergy Neo2 multimode plate reader.
Compounds that inhibit the interaction between RGS2 and FBXO44 would protect RGS2 from proteasomal degradation and result in increased RGS2 protein levels. We therefore next assayed our 20 hits for their ability to increase RGS2 protein levels. We first performed western blot analysis of HEK-293T cells transfected with RGS2-HA and FLAG-FBXO44 and treated overnight (16–18 hours) with 100 μM compound, using proteasome inhibitor MG-132 as a positive control (10 μM). […] Although somewhat disappointing, given the limited sensitivity of western blot, we opted to also test the compounds using an alternate assay paradigm. Specifically, we used the PathHunter ProLabel assay (DiscoveRx), an enzyme complementation assay in which a protein of interest is tagged with a 4 kDa part of β-galactosidase (ProLabel; PL). The chemiluminescent signal in the assay correlates with relative levels of the PL-tagged target protein. We previously developed a stable HEK-293T-RGS2-PL cell line that was used in several high-throughput screening campaigns ([Sjögren et al, 2012]; [Raveh et al, 2014]; [Sjögren et al, 2015]). The PathHunter ProLabel assay offers a more quantitative measurement of protein levels, with a larger dynamic range than a western blot. We treated HEK-293T-RGS2-PL cells overnight (16–18 hours) with 100 μM compound and used 10 μM MG-132 as a positive control.
As a further validation of the action of compound 10, we assessed whether the ability to increase RGS2 protein levels was dependent on FBXO44 using the PathHunter ProLabel assay. HEK-293T-RGS2-PL cells transfected with either nontargeting (NT) or FBXO44-targeting siRNA were treated overnight (16–18 hours) with vehicle or compound 10 (100 μM). […] Thus, compound 10 increases RGS2 protein levels through a mechanism that is dependent on FBXO44.

`CCC1CCCCN1S(=O)(=O)c1cc(Br)ccc1OC` (stereo not drawn) [Compound 10] was tested, and the “% Inhibition @ 100 μM of RGS2-FBXO44 NanoBit signal” value (RGS2-FBXO44 interaction [1]; 100 μM, 16–18 hours, fresh powder, luminescence normalized to viability, vs nontreated cells) was 71.7∗∗∗∗ %, the IC50 (RGS2-FBXO44 interaction [1]; concentrations 500 to 0.01 μM, RLU normalized to viability (RFU), read-out: IC50 (μM), inhibition of RGS2-FBXO44 NanoBit signal) was 19.6 µM and the “Association between RGS2 and FBXO44 (co-IP)” value (RGS2-FBXO44 interaction [2]) was “almost completely blocked”. For the same compound, the “RGS2 protein levels (PathHunter ProLabel)” value (RGS2 protein levels) was “significantly increased RGS2 protein levels”, the “RGS2 protein levels (PathHunter ProLabel)” value (RGS2 protein levels; listed as compound 10) was “significantly increased” and the “Ability to increase RGS2 protein levels after siRNA-mediated FBXO44 knockdown (PathHunter ProLabel)” value (RGS2 protein levels; 100 μM overnight, FBXO44-targeting vs nontargeting siRNA) was “diminished ability”.

— PMC13095444, “Discovery of RGS2-FBXO44 interaction inhibitors using a cell-based NanoBit assay” (Molecular Pharmacology, 2025)
